As usually defined, the MIC is the smallest concentration in the dilution series that meets the test's criterion for growth inhibition. Low readings indicate a more susceptible organism, high ones a less susceptible organism. The term Km denotes the substrate concentration at which the rate is half of its maximum. The kcat is the maximal rate divided by the concentration of active sites.

In assay [1] the test system is Escherichia coli. The assay is described as follows: Antimicrobial activity against Escherichia coli DH5alpha carrying Pseudomonas aeruginosa strain PS 297 IMP-1-pLBII after 18 hrs by microdilution broth method. Particulars: DH5[alpha]. Format: functional.
For assay [2], the system named is Escherichia coli. Briefly: Antimicrobial activity against Escherichia coli DH5alpha carrying Pseudomonas aeruginosa strain PS 297 IMP-18-pLBII after 18 hrs by microdilution broth method. Type of assay: functional. Particulars: DH5[alpha]. (Broth dilution looks for growth in wells or tubes with falling amounts of substance.)
Assay [3] relates to Pseudomonas aeruginosa. Briefly: Ratio of Kcat to Km for Pseudomonas aeruginosa strain PS 297 metallo-beta-lactamase IMP-1 expressed in Escherichia coli BL21(DE3) assessed as substrate hydrolysis using 100 uM nitrocefin.
For assay [4], the system named is Escherichia coli. Briefly: Antimicrobial activity against Escherichia coli DH5alpha carrying empty pBC-SK after 18 hrs by microdilution broth method. Format: functional. As to conditions: DH5[alpha].
The test system of assay [5] is Pseudomonas aeruginosa. The assay is described as follows: Activity of Pseudomonas aeruginosa strain PS 297 metallo-beta-lactamase IMP-1 expressed in Escherichia coli BL21(DE3) assessed as substrate hydrolysis using 100 uM nitrocefin.
The test system of assay [6] is Pseudomonas aeruginosa. The assay is described as follows: Activity of Pseudomonas aeruginosa strain PS 297 metallo-beta-lactamase IMP-18 expressed in Escherichia coli BL21(DE3) assessed as substrate hydrolysis using 100 uM nitrocefin.
Assay [7] concerns Pseudomonas aeruginosa. Briefly: Ratio of Kcat to Km for Pseudomonas aeruginosa strain PS 297 metallo-beta-lactamase IMP18 expressed in Escherichia coli BL21(DE3) assessed as substrate hydrolysis using 100 uM nitrocefin.

Values after ≈ are worked out from the molar mass of the structure shown.

With `C[C@@H](O)[C@H]1C(=O)N2C(C(=O)O)=C(S[C@@H]3CN[C@H](C(=O)Nc4cccc(C(=O)O)c4)C3)[C@H](C)[C@H]12`, the minimum inhibitory concentration (MIC) against Escherichia coli [1] was 2 µg/mL (≈ 4.21 µM); in the assay with Escherichia coli [2] it was 0.12 µg/mL (≈ 0.252 µM); against Escherichia coli [4], at most 0.015 µg/mL. Also, the results for the kcat/Km with Pseudomonas aeruginosa [3] and in the assay with Pseudomonas aeruginosa [7] were 7.6 ×10⁵ /M/s and 1.2 ×10⁴ /M/s, respectively. In addition, the results for the Km in the assay on Pseudomonas aeruginosa [5] and in the assay with Pseudomonas aeruginosa [6] were 21 µM and 2.6 µM, respectively. The figures for the kcat in the assay with Pseudomonas aeruginosa [5] and in the assay with Pseudomonas aeruginosa [6] were 16 s⁻¹ and 0.03 s⁻¹, respectively.
With `CO/N=C(\C(=O)N[C@@H]1C(=O)N2C(C(=O)[O-])=C(C[N+]3(C)CCCC3)CS[C@H]12)c1csc(N)n1`, the MIC worked out at 4 µg/mL (≈ 8.32 µM) against Escherichia coli [1] and 0.25 µg/mL (≈ 0.52 µM) against Escherichia coli [4]. The results for the kcat/Km in the assay on Pseudomonas aeruginosa [3] and in the assay with Pseudomonas aeruginosa [7] were 6.6 ×10⁵ /M/s and 4.4 ×10⁵ /M/s, respectively. Further, the figures for the Michaelis-Menten constant (Km) in the assay on Pseudomonas aeruginosa [5] and in the assay with Pseudomonas aeruginosa [6] were 11 µM and 0.8 µM, respectively. For the same compound, the turnover number (kcat) was 7 s⁻¹ with Pseudomonas aeruginosa [5] and 0.35 s⁻¹ with Pseudomonas aeruginosa [6].
For `CC1(C)S[C@@H]2[C@H](NC(=O)Cc3ccccc3)C(=O)N2[C@H]1C(=O)O`, the kcat/Km with Pseudomonas aeruginosa [3] and with Pseudomonas aeruginosa [7] was 6.2 ×10⁵ /M/s each time. The Michaelis constant (Km) with Pseudomonas aeruginosa [5] was 520 µM; in the assay on Pseudomonas aeruginosa [6], 90 µM. Also, the catalytic constant (kcat) is 320 s⁻¹ with Pseudomonas aeruginosa [5] and 54 s⁻¹ in the assay with Pseudomonas aeruginosa [6].
On to `O=C(Cc1cccs1)N[C@@H]1C(=O)N2C(C(=O)O)=C(/C=C/c3ccc([N+](=O)[O-])cc3[N+](=O)[O-])CS[C@H]12`, for which the kcat/Km with Pseudomonas aeruginosa [3] was 2.3 ×10⁶ /M/s; with Pseudomonas aeruginosa [7], 6.1 ×10⁶ /M/s. In addition, the Michaelis constant (Km) with Pseudomonas aeruginosa [5] stood at 27 µM; with Pseudomonas aeruginosa [6], 9 µM. Moreover, the kcat with Pseudomonas aeruginosa [5] was determined as 63 s⁻¹; in the assay on Pseudomonas aeruginosa [6], 55 s⁻¹.
Turning to `CC1(C)S[C@@H]2[C@H](NC(=O)[C@H](N)c3ccccc3)C(=O)N2[C@H]1C(=O)O` [AMPICILLIN], the results for the MIC in the assay on Escherichia coli [1], against Escherichia coli [2] and with Escherichia coli [4] were 256 µg/mL (≈ 733 µM), 64 µg/mL (≈ 183 µM) and 4 µg/mL (≈ 11.4 µM), respectively. Further, the kcat/Km with Pseudomonas aeruginosa [3] turned out to be 4.8 ×10⁶ /M/s; in the assay on Pseudomonas aeruginosa [7] it was 6.3 ×10⁵ /M/s. Also, the Michaelis constant (Km) with Pseudomonas aeruginosa [5] is 200 µM; in the assay with Pseudomonas aeruginosa [6], 103 µM. Also, the kcat was determined as 950 s⁻¹ in the assay with Pseudomonas aeruginosa [5] and 65 s⁻¹ with Pseudomonas aeruginosa [6].
On to `C[C@H]1[C@H](NC(=O)/C(=N\OC(C)(C)C(=O)O)c2csc(N)n2)C(=O)N1S(=O)(=O)O` [AZTREONAM], for which, in the assay with Pseudomonas aeruginosa [5], the Km is above 1000 µM and the turnover number (kcat) was below 0.01 s⁻¹. Moreover, in the assay with Pseudomonas aeruginosa [6], the Km is above 1000 µM and the kcat was below 0.01 s⁻¹.
With `CO/N=C(\C(=O)N[C@@H]1C(=O)N2C(C(=O)O)=C(COC(C)=O)CS[C@H]12)c1csc(N)n1` [CEFOTAXIME], the MIC was found to be 8 µg/mL (≈ 17.6 µM) against Escherichia coli [1], 32 µg/mL (≈ 70.3 µM) in the assay on Escherichia coli [2] and 0.25 µg/mL (≈ 0.549 µM) against Escherichia coli [4]. Besides, the kcat/Km in the assay on Pseudomonas aeruginosa [3] was 3.5 ×10⁵ /M/s; in the assay on Pseudomonas aeruginosa [7], 2.3 ×10⁵ /M/s. Moreover, the figures for the Km with Pseudomonas aeruginosa [5] and in the assay with Pseudomonas aeruginosa [6] were 4 µM and 3 µM, respectively. Also, the kcat was 1.3 s⁻¹ in the assay with Pseudomonas aeruginosa [5] and 0.7 s⁻¹ in the assay with Pseudomonas aeruginosa [6].
For `CO[C@@]1(NC(=O)C2SC(=C(C(N)=O)C(=O)O)S2)C(=O)N2C(C(=O)O)=C(CSc3nnnn3C)CS[C@@H]21` (stereo partly specified) [CEFOTETAN], the values for the minimal inhibitory concentration (MIC) in the assay on Escherichia coli [1], against Escherichia coli [2] and with Escherichia coli [4] were above 32 µg/mL, 32 µg/mL (≈ 55.6 µM) and 0.25 µg/mL (≈ 0.434 µM), respectively.
For `CO[C@@]1(NC(=O)Cc2cccs2)C(=O)N2C(C(=O)O)=C(COC(N)=O)CS[C@@H]21` [CEFOXITIN], in that order: above 256 µg/mL, 256 µg/mL (≈ 599 µM) and 4 µg/mL (≈ 9.36 µM).
As for `CC(C)(O/N=C(\C(=O)N[C@@H]1C(=O)N2C(C(=O)[O-])=C(C[n+]3ccccc3)CS[C@H]12)c1csc(N)n1)C(=O)O` [CEFTAZIDIME], the MIC was 32 µg/mL (≈ 58.5 µM) with Escherichia coli [1], 32 µg/mL (≈ 58.5 µM) with Escherichia coli [2] and 0.25 µg/mL (≈ 0.457 µM) against Escherichia coli [4]. For the same compound, the results for the kcat/Km in the assay with Pseudomonas aeruginosa [3] and in the assay on Pseudomonas aeruginosa [7] were 1.8 ×10⁵ /M/s and 7.7 ×10⁵ /M/s, respectively. Also, the Km stood at 44 µM in the assay with Pseudomonas aeruginosa [5] and 1.3 µM with Pseudomonas aeruginosa [6]. Also, the kcat turned out to be 8 s⁻¹ with Pseudomonas aeruginosa [5] and 1 s⁻¹ in the assay with Pseudomonas aeruginosa [6].
Turning to `CO/N=C(\C(=O)N[C@@H]1C(=O)N2C(C(=O)O)=C(CSc3nc(=O)c(O)nn3C)CS[C@H]12)c1csc(N)n1` [CEFTRIAXONE], the results for the minimum inhibitory concentration (MIC) in the assay on Escherichia coli [1], with Escherichia coli [2] and with Escherichia coli [4] were 8 µg/mL (≈ 14.4 µM), 4 µg/mL (≈ 7.21 µM) and 0.25 µg/mL (≈ 0.451 µM), respectively.
Consider `CO/N=C(\C(=O)N[C@@H]1C(=O)N2C(C(=O)O)=C(COC(N)=O)CS[C@H]12)c1ccco1` [CEFUROXIME], for which the MIC turned out to be 128 µg/mL (≈ 302 µM) against Escherichia coli [1], 64 µg/mL (≈ 151 µM) in the assay on Escherichia coli [2] and 4 µg/mL (≈ 9.43 µM) against Escherichia coli [4]. Also, the Michaelis-Menten constant (Km) in the assay with Pseudomonas aeruginosa [6] is 7 µM. The catalytic constant (kcat) in the assay on Pseudomonas aeruginosa [6] came to 0.9 s⁻¹. Further, the kcat/Km in the assay with Pseudomonas aeruginosa [7] was 1.3 ×10⁵ /M/s.
In the case of `CC(=O)OCC1=C(C(=O)O)N2C(=O)[C@@H](NC(=O)Cc3cccs3)[C@H]2SC1` [CEPHALOTHIN], the MIC was 256 µg/mL (≈ 646 µM) in the assay with Escherichia coli [1], 32 µg/mL (≈ 80.7 µM) against Escherichia coli [2] and 4 µg/mL (≈ 10.1 µM) in the assay with Escherichia coli [4]. Moreover, the values for the kcat/Km in the assay on Pseudomonas aeruginosa [3] and in the assay on Pseudomonas aeruginosa [7] were 2.4 ×10⁶ /M/s and 4 ×10⁶ /M/s, respectively. Further, the results for the Km in the assay with Pseudomonas aeruginosa [5] and in the assay on Pseudomonas aeruginosa [6] were 21 µM and 0.1 µM, respectively. The kcat in the assay on Pseudomonas aeruginosa [6] stood at 0.4 s⁻¹.
In the assay with Escherichia coli [1], `C[C@@H](O)[C@H]1C(=O)N2C(C(=O)O)=C(SCCNC=N)C[C@H]12` [IMIPENEM ANHYDROUS] yielded a minimal inhibitory concentration (MIC) of 2 µg/mL (≈ 6.68 µM). Besides, the kcat/Km in the assay with Pseudomonas aeruginosa [3] worked out at 1.2 ×10⁶ /M/s; in the assay on Pseudomonas aeruginosa [7], 2.4 ×10⁶ /M/s. Besides, the Km worked out at 39 µM in the assay on Pseudomonas aeruginosa [5] and 7 µM in the assay with Pseudomonas aeruginosa [6]. For the same compound, the kcat is 46 s⁻¹ in the assay on Pseudomonas aeruginosa [5] and 17 s⁻¹ in the assay on Pseudomonas aeruginosa [6].
Turning to `C[C@@H](O)[C@H]1C(=O)N2C(C(=O)O)=C(S[C@@H]3CN[C@H](C(=O)N(C)C)C3)[C@H](C)[C@H]12` [MEROPENEM], the figures for the MIC against Escherichia coli [1], in the assay on Escherichia coli [2] and against Escherichia coli [4] were 2 µg/mL (≈ 5.22 µM), 0.06 µg/mL (≈ 0.156 µM) and at most 0.015 µg/mL, respectively. Besides, the kcat/Km with Pseudomonas aeruginosa [3] was determined as 5 ×10⁵ /M/s; in the assay with Pseudomonas aeruginosa [7], 6 ×10³ /M/s. In the assay on Pseudomonas aeruginosa [6], the Km was 8.4 µM. Further, in the assay with Pseudomonas aeruginosa [6], the kcat turned out to be 0.05 s⁻¹.
For the compound `CCN1CCN(C(=O)N[C@@H](C(=O)N[C@@H]2C(=O)N3[C@@H]2SC(C)(C)[C@@H]3C(=O)O)c2ccccc2)C(=O)C1=O` [PIPERACILLIN], the minimal inhibitory concentration (MIC) against Escherichia coli [1], against Escherichia coli [2] and in the assay on Escherichia coli [4] was 1 µg/mL (≈ 1.93 µM) in each case. For the same compound, the kcat/Km was 7.2 ×10⁵ /M/s in the assay on Pseudomonas aeruginosa [3] and 5.1 ×10⁴ /M/s in the assay with Pseudomonas aeruginosa [7]. Also, the Km in the assay on Pseudomonas aeruginosa [6] is above 200 µM. Moreover, the catalytic constant (kcat) in the assay with Pseudomonas aeruginosa [6] is above 10 s⁻¹.
In the case of `CO[C@@]1(NC(=O)C(C(=O)O)c2ccsc2)C(=O)N2[C@@H](C(=O)O)C(C)(C)S[C@@H]21` (stereo partly specified) [TEMOCILLIN], the minimum inhibitory concentration (MIC) against Escherichia coli [1] was determined as 32 µg/mL (≈ 77.2 µM); against Escherichia coli [2], 16 µg/mL (≈ 38.6 µM); against Escherichia coli [4], 16 µg/mL (≈ 38.6 µM). Also, the kcat/Km with Pseudomonas aeruginosa [3] is below 100 M⁻¹ s⁻¹; in the assay on Pseudomonas aeruginosa [7] it was 7.5 ×10² /M/s. In addition, the values for the Km with Pseudomonas aeruginosa [5] and in the assay on Pseudomonas aeruginosa [6] were above 2000 µM and above 1000 µM, respectively. In addition, the catalytic constant (kcat) in the assay on Pseudomonas aeruginosa [6] is above 0.75 s⁻¹.
For the compound `CC1(C)S[C@@H]2[C@H](NC(=O)[C@H](C(=O)O)c3ccsc3)C(=O)N2[C@H]1C(=O)O` [TICARCILLIN], the MIC was found to be 512 µg/mL (≈ 1330 µM) against Escherichia coli [1], 256 µg/mL (≈ 666 µM) with Escherichia coli [2] and 8 µg/mL (≈ 20.8 µM) with Escherichia coli [4]. The results for the kcat/Km with Pseudomonas aeruginosa [3] and in the assay with Pseudomonas aeruginosa [7] were 1.5 ×10³ /M/s and 1.5 ×10⁵ /M/s, respectively. For the same compound, the Michaelis constant (Km) was found to be 740 µM in the assay with Pseudomonas aeruginosa [5] and 180 µM in the assay on Pseudomonas aeruginosa [6]. The catalytic constant (kcat) was 1.1 s⁻¹ in the assay on Pseudomonas aeruginosa [5] and 30 s⁻¹ in the assay on Pseudomonas aeruginosa [6].

These data come from ChEMBL document CHEMBL1687833, “Genetic context and biochemical characterization of the IMP-18 metallo-beta-lactamase identified in a Pseudomonas aeruginosa isolate from the United States” (2011).
